From publication PMC2628638, “Catalytic inhibition of topoisomerase II by a novel rationally designed ATP-competitive purine analogue” (BMC Chemical Biology, 2009)

Assays:
[1] = tested on: topoisomerase II from nuclear extracts of HL-60 cells; assay: DNA decatenation assay with HL-60 nuclear extracts (kDNA); assay type: biochemical, human; details: catenated kDNA, 450 μM ATP, read-out: mean IC50, inhibition of DNA decatenation
Protocol: Reagents for the assay were purchased from TopoGEN (catalog number 1001–1, TopoGEN, Inc., Port Orange, FL). Topoisomerase II was extracted according to the manufacturer's instructions from nuclei of HL-60 cells (ATCC; American Type Culture Collection, Manassas, Virginia, USA) and contained both isoforms as assessed by Western blotting. Calculation of specific topoisomerase II decatenation activity was based on complete decatenation of a given amount of catenated input DNA (100 ng kDNA) by a defined amount of nuclear extract containing the alpha and beta isoforms or of a defined amount of purified enzyme in a particular amount of time. The topoisomerase II activity from nuclei decatenated 0.07 ng catenated kDNA · min^-1 · ng^-1 extract. Purified topoisomerase II alpha (see above) decatenated 0.13 ng catenated kDNA · min^-1 · ng^-1. Vehicle (DMSO) or drug substance at concentrations to yield the desired end concentrations were added and samples were preincubated for 5 minutes at 37°C and 400 rpm in an Eppendorf thermomixer. Reactions were started by adding ATP (to 450 μM final concentration) to each sample and incubation was continued for 20 minutes. […] Gels were analyzed under a UV transilluminator and decatenated kDNA products were quantified using AlphaEaseFC (FluorChem 8900) image analysis software version 3.2.3 (Alpha Innotech, San Leandro, CA).

HeLa T-Rex cells = assay: Gamma-H2AX In-Cell Western assay (doxorubicin-induced DNA damage); assay type: cell-based; details: Homo sapiens, HeLa; 30 minutes pretreatment, then 1 μM doxorubicin for 2 hours; read-out: IC50, suppression of doxorubicin-induced γH2AX signal
Protocol: In-Cell Western analysis was carried out as follows. HeLa T-Rex cells were seeded at the cell density of 15 × 10^3 cells per well in black 96-well plates (Greiner Bio-one Vacuette, St Gallen, Switzerland). The day post-seeding, cells were pretreated with increasing concentrations of either ICRF-193, QAP 1 or vehicle (DMSO) for 30 minutes followed by a 2 hours treatment with 1 μM of doxorubicin, or were only treated with the same concentrations of ICRF-193, QAP 1 or vehicle (DMSO) for 2 hours. Treatments were done in triplicate. […] Finally, cells were washed 4 times with 50 μl per well of PBS containing 0.1% Tween-20 for 3 minutes, liquid was removed and plates were kept at 4°C until reading. γH2AX signals were read using the LI-COR Odyssey Infrared Imager with the Odyssey v1.1 software using the 800 nm channel. Blank values correspond to non-specific γH2AX signal detected in wells without primary antibody staining. […] The resulting values for each sample were normalized to the DNA quantity by measuring the corresponding TO-PRO-3 iodide signals. The TO-PRO-3 iodine signals were detected by using the 700 nm channel. The percentage of γH2AX signal was determined for each concentration of ICRF193 and QAP 1 with or without doxorubicin treatment by setting the value for the treatment with vehicle and 1 μM doxorubicin to 100%. […]

- IC50 [1]: 770 nM
Compound: CCc1nc2nc(Nc3ccc4nc(OCCN5CCOCC5)ccc4c3)nc(NC(C)(C)C)c2[nH]1 [QAP 1]
- IC50 (HeLa T-Rex cells): ~1100 nM
